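Results reflect a 48-hour exposure of cells in 96-well plates to compound at five concentrations. The concentration for 50% growth inhibition is given as GI50. The concentration for full growth arrest is given as TGI.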
How the values were obtained:
Experiment in all cases: growth of human tumour cells (NCI), 48 h
SNB-75 CNS = tested on: SNB-75 CNS
OVCAR-4 ovarian = tested on: OVCAR-4 ovarian
ACHN renal = tested on: ACHN renal
SN12C renal = tested on: SN12C renal
MDA-MB-231 breast = tested on: MDA-MB-231 breast
MOLT-4 leukemia = tested on: MOLT-4 leukemia
NCI/ADR-RES ovarian = tested on: NCI/ADR-RES ovarian
SF-295 CNS = tested on: SF-295 CNS
T-47D breast = tested on: T-47D breast
NCI-H226 lung = tested on: NCI-H226 lung

Row | Structure (SMILES) | TGI (SNB-75 CNS) [µM] | TGI (OVCAR-4 ovarian) [µM] | TGI (ACHN renal) [µM] | TGI (SN12C renal) [µM] | TGI (MDA-MB-231 breast) [µM] | TGI (MOLT-4 leukemia) [µM] | TGI (NCI/ADR-RES ovarian) [µM] | GI50 (SNB-75 CNS) [µM] | GI50 (SF-295 CNS) [µM] | TGI (SF-295 CNS) [µM] | GI50 (OVCAR-4 ovarian) [µM] | GI50 (ACHN renal) [µM] | GI50 (SN12C renal) [µM] | GI50 (MDA-MB-231 breast) [µM] | GI50 (T-47D breast) [µM] | TGI (T-47D breast) [µM] | GI50 (NCI-H226 lung) [µM] | TGI (NCI-H226 lung) [µM] | GI50 (NCI/ADR-RES ovarian) [µM] | GI50 (MOLT-4 leukemia) [µM]
1 | CC(=O)O[C@H]1C(=O)[C@]2(C)[C@@H](OC(=O)OCC(O)CO)C[C@H]3OC[C@@]3(OC(C)=O)[C@H]2[C@H](OC(=O)c2ccccc2)[C@]2(O)C[C@H](OC(=O)[C@H](O)[C@@H](NC(=O)c3ccccc3)c3ccccc3)C(C)=C1C2(C)C (stereo partly drawn) | < 0.01 | > 83.9 | > 100 | > 100 | 17.2 | 31.3 | 4.94 |  |  |  |  |  |  |  |  |  |  |  |  | 
2 | CC(C)(C)CC(C)(C)Cc1ccc(OCCOCC[N+](C)(C)Cc2ccccc2)cc1 | 3.47 | 3.94 | 27 | 3.04 | 3.08 |  | 58.6 | 1.63 | 3.62 | 15.5 | 0.681 | 11.8 | 1.57 | 1.51 | 1.41 | 3.94 | 1.79 | 6.72 | 21.5 | 
3 | O=C(CCN1CCCC1)Nc1ccc2c(NCCCCc3ccccc3)c3ccccc3nc2c1 | 2.65 | 2.52 | 2.59 | 2.39 | 2.43 |  | 59.4 | 1.33 | 1.5 | 2.88 | 1.12 | 1.32 | 1.08 | 1.15 |  |  | 1.15 | 2.49 | 11.3 | 
4 | COc1cc(-c2ccc(-c3ccc(C(=N)N)s3)s2)cc(OC)c1OC | 2.93 | 3.95 | 3.17 | 3.17 |  | 5 | 12.9 | 1.5 | 1.78 | 3.39 | 1.82 | 1.78 | 1.61 |  |  |  |  |  | 3.44 | 2.4
5 | N#Cc1ccc(Nc2nc3nc[nH]c3c(=O)[nH]2)cc1 | > 100 | > 100 | > 100 | > 100 | > 100 | > 100 | > 100 |  |  | > 100 |  |  |  |  |  | > 100 |  | > 100 |  | 
6 | NC(=O)c1cc2ccccc2c(N=Nc2ccccc2)c1O | > 100 | > 100 |  | > 100 | > 100 | > 100 | > 100 |  |  | > 100 |  |  |  |  |  | > 100 |  | > 100 |  | 
7 | CN1CCN(c2ccc3nc(-c4ccc(OCCCN5C(=O)c6cccc7cccc(c67)C5=O)cc4)[nH]c3c2)CC1 |  |  | 11.2 | 34.8 | 2.76 | 5.05 | 4.7 |  | 14.5 | 89.2 |  | 5.34 | 15.6 | 1.41 | 4.8 | 34.3 | 19.8 | 51.2 | 2.09 | 2.06
8 | Cc1c2cc[n+](C)cc2c(COC2OC(CO)C(O)C2O)c2c3ccccc3n(C)c12 (stereo not drawn) | 92.4 | > 100 |  | 89.1 |  | > 100 | > 100 |  |  | > 100 |  |  |  |  |  |  |  | > 94.1 |  | 
9 | Cc1c2cc[n+](C)cc2c(C)c2c1[nH]c1ccc(O)cc12 | 25.7 | > 100 |  | 15.5 | > 100 | 58.3 | > 100 |  |  | 64.7 |  |  |  |  |  | 11 |  | 16.6 |  | 
10 | CCP(=O)(CC)C(Cl)(Cl)C(=O)NC | > 100 | > 100 | > 100 | > 100 | > 100 | > 100 | > 100 |  |  | > 100 |  |  |  |  |  | > 100 |  | > 100 |  | 
11 | C[Si](C)(C)C#C[I+]c1ccccc1 | > 100 | > 100 | > 100 | 64.7 |  | > 100 |  |  |  | > 100 |  |  |  |  |  |  |  | > 100 |  | 
12 | COc1cccc2c1C(=O)c1c(O)c3c(c(O)c1C2=O)C[C@@](O)(C(C)=O)C[C@@H]3OC1CC(N)C(O)C(C)O1 (stereo partly drawn) |  |  |  |  |  |  |  | 0.0161 | < 0.0147 |  | 0.0643 | < 0.011 | < 0.0179 | 0.0534 | < 0.0176 |  |  |  |  | 
13 | CCOC(=O)c1c(NC(=S)NCc2ccccc2)sc2c1CCN(C)C2 |  |  | > 100 | > 100 | > 100 | 51 | > 100 |  |  | > 100 |  |  |  |  |  | > 100 |  | > 100 |  | 

— PubChem BioAssay (NCI)
